Patent US7202261B2, “Calcilytic compounds” (NPS Pharmaceuticals, Inc., priority 1996, dated 2007)
Counter-ions that a name gives are not always drawn.

Molecular target: T1, human calcium receptor (Homo sapiens, UniProt P41180)
T1 construct: expressed in transfected cells
T1 sequence (P41180 20-1078): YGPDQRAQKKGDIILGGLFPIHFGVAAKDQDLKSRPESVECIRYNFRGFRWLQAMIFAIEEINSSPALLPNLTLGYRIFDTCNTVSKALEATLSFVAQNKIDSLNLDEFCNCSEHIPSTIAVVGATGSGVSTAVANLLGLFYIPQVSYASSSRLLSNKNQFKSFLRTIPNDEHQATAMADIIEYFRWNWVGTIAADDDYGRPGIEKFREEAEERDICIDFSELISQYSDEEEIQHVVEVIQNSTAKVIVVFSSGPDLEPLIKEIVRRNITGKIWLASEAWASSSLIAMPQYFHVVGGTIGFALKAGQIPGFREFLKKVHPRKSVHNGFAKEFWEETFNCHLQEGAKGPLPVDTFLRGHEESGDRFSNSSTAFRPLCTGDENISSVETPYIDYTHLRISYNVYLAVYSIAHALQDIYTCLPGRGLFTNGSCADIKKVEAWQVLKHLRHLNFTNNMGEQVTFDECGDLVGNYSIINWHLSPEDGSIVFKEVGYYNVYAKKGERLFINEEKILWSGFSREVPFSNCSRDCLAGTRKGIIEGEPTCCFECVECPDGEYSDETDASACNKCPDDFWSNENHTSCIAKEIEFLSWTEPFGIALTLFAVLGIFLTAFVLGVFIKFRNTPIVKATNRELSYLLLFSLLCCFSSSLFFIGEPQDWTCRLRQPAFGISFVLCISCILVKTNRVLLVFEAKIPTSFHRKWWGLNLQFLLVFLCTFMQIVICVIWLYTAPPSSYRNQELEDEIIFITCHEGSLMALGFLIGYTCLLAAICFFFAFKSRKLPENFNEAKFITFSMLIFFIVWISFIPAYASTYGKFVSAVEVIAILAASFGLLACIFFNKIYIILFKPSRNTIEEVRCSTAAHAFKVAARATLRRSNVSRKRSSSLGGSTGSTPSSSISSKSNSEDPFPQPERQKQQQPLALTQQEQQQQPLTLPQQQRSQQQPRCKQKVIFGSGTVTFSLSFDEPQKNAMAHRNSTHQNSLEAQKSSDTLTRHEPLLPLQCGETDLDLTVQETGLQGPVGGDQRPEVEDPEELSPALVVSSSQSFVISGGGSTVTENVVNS
Test: Calcium Receptor Inhibitor Assay
Type: cell-based
Details: HEK 293 4.0–7 cells stably expressing the human calcium receptor; fluo-3; read-out: IC50 for blocking increases of intracellular Ca2+ elicited by extracellular Ca2+
How it was run: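 Intracellular Ca^2+ measured with fluo-3 at 37° C in stirred cell suspension. Buffer held 1 mM CaCl2 and 1 mg/mL D-glucose. Compound or vehicle added 90 seconds before extracellular Ca^2+ was raised from 1 to 2 mM, and calcilytic activity scored as concentration-dependent block of the intracellular Ca^2+ rise.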

| Compound | IC50 |
| --- | --- |
| COc1ccc(CC(C)(C)NC[C@@H](O)COc2ccccc2)cc1 (single isomer, unassigned) [Compound 32, (R) or (S)—N-(2-Hydroxy-3-phenoxypropyl)-1,1-dimethyl-2-(4-methoxyphenyl)ethylamine Hydrochloride] | < 10 µM |
| COc1ccc(CC(C)(C)NCC(O)COc2cccc(OC)c2)cc1 (centres unmarked) [Compound 38, N-[2-Hydroxy-3-(3-methoxyphenoxy)propyl]-1,1-dimethyl-2-(4-methoxyphenyl)ethylamine Hydrochloride] | < 1 µM |
